Experimental data: patent US9932300B2, “N,N′-diarylurea compounds and N,N′-diarylthiourea compounds as inhibitors of translation initiation” (President and Fellows of Harvard College, priority 2009, dated 2018)
“And” between values parts separate entries of the source, which are not always exact repeats. Equal entries are not always repeated.

Tested on: eIF2-GTP-Met-tRNAi ternary complex
Assay: Ternary complex assay (dual luciferase, firefly/renilla ratio) in stable KLN-tTA/pBISA-DL(ATF-4) cells; HTS and hit confirmation
Type: cell-based, mouse
Set-up: Activity 10 uM / Activity 2.5 uM / Activity 5 uM: unit not given here
Settings: confirmed hits of the screen (Table 5); for Activity 2.5 uM: compound at 2.5 uM; for Activity 10 uM: compound at 10 uM; for Activity 5 uM: compound at 5 uM

Row | SMILES | Activity 2.5 uM | Activity 10 uM | Activity 5 uM
1 | c1ccc(-c2cnn3c(-c4ccccc4)cnnc23)cc1 [Compound 355167] | 3.09 | 4.17 | 
2 | [Cl][Sn]([CH2][Sn]([Cl])([c]1ccccc1)[c]1ccccc1)([c]1ccccc1)[c]1ccccc1 [Compound 356110] |  | 3.9 | 2.4
3 | [Br][Sn]([Br])([CH2][Sn]([Br])([c]1ccccc1)[c]1ccccc1)[c]1ccccc1 [Compound 356111] |  | 3.2 | 4.4
4 | COc1ccc2nc3cc(Cl)ccc3c(NCCC3CCCN4CCCCC34)c2c1 (stereo not drawn) [Compound 359827] | 0.61 | 6.27 | 
5 | CSc1ncnc2c(C3OC(COC(C)=O)C(OC(C)=O)C3OC(C)=O)[nH]nc12 (stereo not drawn) [Compound 360648] | 1.88 | 3.85 | 
6 | CC(C)(C)c1cc(C(O)(C(F)(F)F)C(F)(F)F)c(Cl)c(C(O)(C(F)(F)F)C(F)(F)F)c1 [Compound 361407] | 0.62 | 3.7 | 
7 | c1cc[c]([Ge]([O][Ge]([c]2ccccc2)[c]2ccccc2)[c]2ccccc2)cc1.c1cc[c]([Ge]([O][Ge]([c]2ccccc2)[c]2ccccc2)[c]2ccccc2)cc1 [Compound 361597] | 0.32 | 17.56 | 
8 | O=C1c2c(-c3ccccc3)ccc(-c3ccccc3)c2C2(O)OC1(O)c1c(-c3ccccc3)ccc(-c3ccccc3)c1C2=O [Compound 361889] | 0.88 | 12.01 | 
9 | COc1ccc(N=c2nc3n4c(c(Br)cc(Br)c4n2)NC(C(Br)(Br)Br)=N3)cc1 [Compound 366233] | 17.26 | 30.55 | 
10 | CC(/C=C/c1cccc(C)c1)=N\NC(N)=O [Compound 366583] |  | 3.134 | 2.409
11 | COc1ccc2c(n1)Sc1nc3ccccc3nc1N2 [Compound 367416] |  | 7.3545 | 6.047
12 | Br.C/C(=C\c1ccccc1)C(=O)C(CN(C)C)CN(C)C [Compound 367620] | 0.49 | 16.04 | 
13 | Cc1ccc2nc(-c3ccccc3)c(N=O)n2c1 [Compound 369061] |  | 6.3 | 5.137
14 | O=C(Nc1nc2ccc(Cl)cc2[nH]1)c1ccccc1O [Compound 369110] | 1.84 | 6.46 | 
15 | CC(=Nc1ccc(Cl)cc1N)c1c(O)cc(C)oc1=O [Compound 369331] |  | 2.7605 | 2.533
16 | CN(C(=[Se])[Se]C(=[Se])N(C)C1CCCCC1)C1CCCCC1 [Compound 369741] | 0.96 | 6.34 | 
17 | c1csc(-c2[nH]nc3c2CCc2ccccc2-3)c1 [Compound 370463] | 4.76 | 5.98 | 
18 | Cn1c2ccccc2c2nnc(N/N=C/c3ccccn3)nc21 [Compound 370589] | 11.87 | 39.54 | 
19 | Cc1ccc2c(O)c3c(cc2c1O)C(=O)c1ccccc1C3=O [Compound 374924] | 2.1 | 6.35 | 
20 | C/C(=N\NC(=S)N1CCN(C2CCCCCC2)CC1)c1ccccn1 [Compound 376265] | 2.72 | 7.26 | 
21 | O=C(O)Cc1ccc(O)c(O)c1.[Pt].c1ccc([PH+](c2ccccc2)c2ccccc2)cc1.c1ccc([PH+](c2ccccc2)c2ccccc2)cc1 [Compound 377376] | 0.96 | 5.14 | 

Row | SMILES | Activity 2.5 uM | Activity 10 uM | Activity 5 uM
22 | CNCC(O)c1ccc(O)c(O)c1.[Pt].c1ccc([PH+](c2ccccc2)c2ccccc2)cc1.c1ccc([PH+](c2ccccc2)c2ccccc2)cc1 [Compound 377377] | 0.77 | 34.93 | 
23 | CC(C)NCC(O)c1ccc(O)c(O)c1.[Pt].c1ccc([PH+](c2ccccc2)c2ccccc2)cc1.c1ccc([PH+](c2ccccc2)c2ccccc2)cc1 [Compound 377378] | 0.87 | 21.49 | 
24 | Nc1ccccc1-c1nnc(-c2ccccc2)o1 [Compound 377831] | 2.19 | 3.79 | 
25 | COc1cc2c(cc1C[N+](C)(C)CSc1ccccc1)-c1ccccc1CC2.[Br-] [Compound 378135] | 1.75 | 3.15 | 
26 | Nc1ccccc1Nc1c([N+](=O)[O-])cc(C(F)(F)F)cc1[N+](=O)[O-] [Compound 379578] | 0.61 | 27.15 | 
27 | CC1(C)CN=C(NN=C(C=Cc2ccc(C(F)(F)F)cc2)C=Cc2ccc(C(F)(F)F)cc2)NC1 [Compound 379665] | 1.08 | 35.03 | 
28 | COC(=O)C1=C(C(=O)OC)C2(C)OC1c1ccccc12 (stereo not drawn) [Compound 380207] | 0.47 and 0.3615 |  | 
29 | c1ccc(-c2noc(-c3ccccc3)n2)cc1 [Compound 400077] | 2.04 | 3.14 | 
30 | CN(C)c1ccc(N=C2C=CC(=O)C=C2)cc1 [Compound 400538] | 0.57 | 6.8 | 
31 | Cc1cc(N=Nc2ccccc2C)c(N)cc1N [Compound 400939] | 2.36 | 3.56 | 
32 | CC1=CC(=Nc2ccc(N(C)C)cc2)C=CC1=O [Compound 401162] | 0.3784 | 7.084 | 
33 | c1ccc2c(O[Si](Oc3cccc4ccccc34)(Oc3cccc4ccccc34)Oc3cccc4ccccc34)cccc2c1 [Compound 401234] | 1 | 24.65 | 
34 | CCCCCCNc1nc(N2CCOCC2)c2[nH]c(NCCCCCC)nc2n1 [Compound 401304] | 1.04 | 43.11 | 
35 | Oc1c(Cl)cc(Cl)cc1Cc1cc(Cl)cc(Cl)c1O [Compound 402193] | 0.56 | 3.19 | 
36 | Br.CCCCCCCCCCCCNCCCc1ccccc1 [Compound 402291] | 0.73 | 4.43 | 
37 | Oc1ccc(N=Nc2ccc(Cl)cc2)cc1 [Compound 402592] | 2.25 | 3.48 | 
38 | O=C(Nc1ccccc1)c1cc(Cl)ccc1O [Compound 402600] | 1.14 | 4.82 | 
39 | O=C1C(=O)c2ccccc2-c2ccccc21.O=C1C(=O)c2ccccc2-c2ccccc21.[Hg] [Compound 402785] | 50.88 |  | 
40 | CC(C)(C)c1ccc(C(=O)C[n+]2ccc(Cl)c3ccc(Cl)cc32)cc1.[Br-] [Compound 402826] | 0.85 | 5.42 | 
41 | Cc1ccc([As]=[As]c2ccc(C)cc2N)c(N)c1.Cl (stereo not drawn) [Compound 402866] | 1.66 | 26.02 | 
42 | NS(=O)(=O)c1ccc(NC(=S)Nc2ccc(S(=O)(=O)Nc3nccs3)cc2)cc1 [Compound 403440] | 1.41 | 3.83 | 

Row | SMILES | Activity 2.5 uM | Activity 10 uM | Activity 5 uM
43 | COC1OC(CI)C(OC(=O)c2ccccc2)C(OC(=O)c2ccccc2)C1OC(=O)c1ccccc1 (stereo not drawn) [Compound 403488] | 1.55 | 4.41 | 
44 | CCOc1ccc2c(c1)/C(=C\C=C\C1CC(C)C3CC(OCC)CCC3N1CC)CC(C)N2CC (stereo not drawn) [Compound 403534] | 7.33 | 9.9 | 
45 | Cc1ccc(NC(=O)c2ccc(Cl)cc2Cl)cc1 [Compound 405522] | 2.47 | 3.69 | 
46 | CCCCN=C(C)CC(=O)CC(=O)c1ccccc1 [Compound 406018] | 1.51 | 4.09 | 
47 | Cc1ccc(C23C=CC(c4ccccc4)(C2)C2C(=O)OC(=O)C23)cc1 (stereo not drawn) [Compound 406824] | 1.76 | 4.25 | 
48 | F[B-](F)(F)F.c1ccc([P+](c2ccccc2)(c2ccccc2)c2ccccc2)cc1 [Compound 407396] | 1.72 | 4.74 | 
49 | CC(=O)Oc1cc2c(c3ccc4ccccc4c13)CCc1ccccc1-2 [Compound 407658] | 1.57 | 5.17 | 
50 | O=C1C=CC(=Nc2ccc3c(c2)Cc2cc(Br)ccc2-3)O1 [Compound 408380] | 2.28 | 4.36 | 
51 | O=C1C=CC(=O)N1c1ccc2c(c1)Cc1cc(NC(=O)C(F)(F)F)ccc1-2 [Compound 408383] | 0.84 | 10.77 | 
52 | CN(C)c1ccc(/C=C/c2nccc3ccccc23)cc1 [Compound 408399] | 1.63 | 3.42 | 
53 | Cc1cc2c(C(C)C)c(O)c(O)c(C=Nc3ccccc3[N+](=O)[O-])c2c(O)c1-c1c(C)cc2c(C(C)C)c(O)c(O)c(C=Nc3ccccc3[N+](=O)[O-])c2c1O [Compound 408711] | 1.47 | 21.88 | 
54 | Cc1cc2c(C(C)C)c(O)c(O)c(C=Nc3ccc([N+](=O)[O-])cc3)c2c(O)c1-c1c(C)cc2c(C(C)C)c(O)c(O)c(C=Nc3ccc([N+](=O)[O-])cc3)c2c1O [Compound 408712] | 1.57 | 21.65 | 
55 | Nc1ccc(O)c(-c2ccccc2)c1 [Compound 409777] | 20.85 | 5.55 | 
56 | C(=N\Nc1ccc2ccccc2n1)/c1ccccn1 [Compound 527347] | 2.551 | 5.591 | 
57 | CCN(CC)C1=C/CC/C(c2ccccc2)=N/N=C\1c1ccccc1 [Compound 601076] | 2.48 | 3.17 | 
58 | Cc1ccc2occ/c(=N\Nc3ccccc3)c2c1 [Compound 601994] | 3.42 | 5.21 | 
59 | O=Cc1c(-c2ccccc2)nc2sc(-c3ccc4c(c3)OCO4)nn12 [Compound 602807] | 2.08 | 3.12 | 
60 | C=C(CN1CCCC1)C(=O)c1ccc(OC)cc1.Cl [Compound 603554] | 0.35 | 8.45 | 
61 | CC(C)(C)C1=CC(=CC=C2C=CN(CCCCCCCCCCCO)C=C2)C=C(C(C)(C)C)C1=O [Compound 603854] | 0.93 | 4.19 | 
